Measured values as given in PMC9108603, “Microbial Metabolite Inspired β‐Peptide Polymers Displaying Potent and Selective Antifungal Activity” (Advanced Science, 2022).
Converted amounts (≈) assume the structure as drawn. Where two headings read alike, the source gives them in different places.

Assays:
C. neoformans = test: MIC assay (in vitro antifungal assay); format: cell-based; conditions: Cryptococcus neoformans, 48 h
Procedure: In vitro antifungal assays. The MIC assays for C. albicans (K1, SC5314, Gu5, ATCC90028, R01, R02, R03 and R04 strains) and C. neoformans (H99, MYA737 and JEC21 strains) were conducted according to a previously described protocol. The cultured fungal cells were collected at 2.5 × 10^3 CFU/mL in RPMI 1640 medium to give the working suspension. Two- […]
plate to give 50 µL compound solution in each well. Then 50 µL of the cell suspension was added to each well. Wells containing cells in RPMI without any polymer or antifungal drug were used as drug-free controls, and wells containing RPMI medium only were used as cell-free controls. The plate was gently stirred for 10 seconds and then incubated at 30 °C. After C. albicans and C. neoformans cells were incubated for 24 h and 48 h, respectively, fungal cell growth was checked visually. […]

[1] = test system: endothelial cells (HUVEC); test: Cytotoxicity, MTT assay; format: cell-based, human; conditions: Homo sapiens, HUVEC, 24 h, 37 °C, 800 to 1.6 μg/mL, 50% cell viability
Procedure: Cytotoxicity assay. Cytotoxicity tests were performed on NIH 3T3 fibroblast cells, endothelial cells (HUVEC), macrophage (RAW264.7), liver cells (LO2), kidney cells (COS7) and enterocyte (NCM-460) using MTT assay. Cells were cultured in DMEM supplemented with 10% FBS, 5% penicillin, 2 mM L-glutamine and incubated at 37 °C in 5% CO 2. Cells were harvested and seeded onto 96-well plates at a density of 1.0 × 10^4 cells per well and incubated for 24 h. On each plate, wells containing growth medium only and cells in growth medium without any antifungal agent were used as the negative and positive control, […]
concentrations ranging from 800 to 1.6 μg/mL. Medium in each cell-containing well was replaced with 100 μL of the corresponding polymer solution, and the plates were incubated at 37 °C for 24 h. Then, the solution in each well was switched to 100 µL MTT solution (1 mg/mL) and the plate was incubated in the dark at 37 °C for 4 h. […] Then 85 µL of the supernatant from each well was transferred to the corresponding well in a new plate, followed by absorbance measurement at 570 nm on a plate reader. […] The percentage of cell viability in each test well, relative to the positive control (which defines 100%) w as calculated from [% fibroblast growth = (A polymer – Ablank)/(Acontrol – A blank) × 100]. […]

A. Baumannii ATCC 747 = test: Antibacterial MIC test; format: cell-based; conditions: 1.0 × 10^5 CFU/mL in MH medium
From the text: (§1) aforementioned antifungal assay. Gram-positive bacteria ( S. aureus ATCC 6538, S.

B. subtilis BR151 = test: Antibacterial MIC test; format: cell-based; conditions: 1.0 × 10^5 CFU/mL in MH medium
From the text: as §1

E. coli ATCC 25922 = test: Antibacterial MIC test; format: cell-based; conditions: 1.0 × 10^5 CFU/mL in MH medium
From the text: as §1

[2] = test system: K. pneumoniae ATCC 700603; test: Antibacterial MIC test; format: cell-based; conditions: 1.0 × 10^5 CFU/mL in MH medium
From the text: as §1

S. aureus ATCC 6538 = test: Antibacterial MIC test; format: cell-based; conditions: 1.0 × 10^5 CFU/mL in MH medium
From the text: as §1

[3] = test system: S. epidermidis ATCC 49134; test: Antibacterial MIC test; format: cell-based; conditions: 1.0 × 10^5 CFU/mL in MH medium
From the text: as §1

BALB/c mice eyes = format: in vivo, mouse; conditions: 15 mg mL^−1 eye drops every 5 min for 1 h, then every 30 min for 7 h; male BALB/c, n = 3
Procedure: Medicine (Accreditation number of the laboratory: SHDSYY-2021-1729). The experiment
method. […] AmpB was
(2.5% DMSO in final solution).
The organs (kidney, liver, and
14th day for histological analysis and blood biochemistry analysis.
30 min during the next 7 h.
C. albicans biofilm formation on contact lenses. The contact lenses (Biomedic ®, Cooper
Then the discs were transferred to a
and incubated at rt with shaking at 100 rpm. After 6 hours of incubation, the suspension was […]

C. albicans (K1 strain) = test: Mitochondrial membrane potential (JC-1); format: cell-based, Candida albicans; conditions: 50 μg/mL PDAP20, 2 h, 3.0 × 10^6 CFU/mL; green = early stage of apoptosis
Procedure: NAC concentration without affecting the normal cell growth. Wells containing cells in RPMI and 40 mM H 2O2 was used as positive controls. Cell suspension of C. albicans (K1 strain) at 6.0 × 10^6 CFU/mL was treated with 20 μM 2,7-dichlorodi-hydrofluorescein diacetate (DCFHDA) for 20 min. Then 50 µL of the cell suspension was added to each well, except the blank control (RMPI containing DCFHDA without cells). The fluorescence intensity of the induced ROS production was measured every 30 min using a plate reader at λ ex = 485 nm and λem = 530 nm. The confocal observation of ROS production was conducted after C. albicans (K1 strain) suspension at 3.0 × 10^6 CFU/mL was incubated with 50 μg/mL CPM-PDAP 20 for 2 h. […]
Detection of mitochondrial membrane potential. Changes in mitochondrial membrane potential in C. albicans after incubation with PDAP 20 were analyzed using JC-1 as previously described. Mitochondrial membrane potential was detected with the fluorescent dye JC-1, which exists as aggregates (red) in normal cells with polarized mitochondria, whereas exists as monomers (green) in apoptotic cells with depolarized mitochondria. […]
DNA fragmentation assay. Apoptosis induced DNA fragments in C. albicans cells were analyzed using the TdT-mediated dUTP Nick-End Labeling (TUNEL) method. […]

Compound | MIC (C. neoformans; read-out: MIC C. neoformans H99) [µg/mL] | MIC (C. neoformans; read-out: MIC C. neoformans JEC21) [µg/mL] | MIC (C. neoformans; read-out: MIC C. neoformans MYA737) [µg/mL] | IC50 [1] [µg/mL] | MIC A. baumannii (A. Baumannii ATCC 747) [µg/mL] | MIC B. subtilis (B. subtilis BR151) [µg/mL] | MIC E. coli (E. coli ATCC 25922) [µg/mL] | MIC K. pneumoniae [2] [µg/mL] | MIC S. aureus (S. aureus ATCC 6538) [µg/mL] | MIC S. epidermidis [3] [µg/mL] | Corneal histology (H&E) after topical administration (BALB/c mice eyes) | Mitochondrial membrane potential, JC‐1 stain (C. albicans (K1 strain))
C[C@@H]1[C@H](O)[C@@H](C)/C=C/C=C/C=C/C=C/C=C/C=C/C=C/[C@H](O[C@@H]2O[C@H](C)[C@@H](O)[C@H](N)[C@@H]2O)C[C@@H]2O[C@](O)(C[C@@H](O)C[C@@H](O)[C@H](O)CC[C@@H](O)C[C@@H](O)CC(=O)O[C@H]1C)C[C@H](O)[C@H]2C(=O)O [AmpB, amphotericin B] | 1.6 (≈ 1.73 µM) | 1.6 (≈ 1.73 µM) | 1.6 (≈ 1.73 µM) | 8.8 (≈ 9.52 µM) | – | – | – | – | – | – | – | –
poly(DL‐diaminopropionic acid) [PDAP20] | – | – | – | – | > 200 | 50 | 200 | > 200 | > 200 | 200 | no obvious toxicity | cytosol green fluorescence
